Measurements taken from patent US5223508A, “Pyridyl carboximidamide compounds useful in treating blood pressure” (Kirin Beer Kabushiki Kaisha, priority 1992, dated 1993).

Legend:
[1] = system: animal; conditions: literature; cited from earlier work
[2] = system: potassium channel; conditions: literature; cited from earlier work
[3] = system: potassium channel; assay: Potassium channel activating effect (86Rb efflux from rat thoracic aorta); set-up: species or system male Wistar rats; conditions: 10^-4M, 8 minutes
Description: Male Wistar rats (weighing 250-350 g) were dehematized to death, and thoracic aortae were rapidly isolated. The aorta was opened along the longitudinal axis to prepare a flat sheet. The preparation was loaded with ^86 Rb in the Krebs-Ringer solution which contained ^86 Rb in the concentration of 10 μCi/ml and was gassed with 95% O2 -5% CO2 at 37° C. for 2 hours. The preparation was then transferred to a Krebs-Ringer solution not containing ^86 Rb, and washed to remove excess radioactivity for 18 minutes by refreshing the solution every 2 minutes. Finally the preparation was placed into a Krebs-Ringer solution containing each compound (10^-4M) for 8 minutes.
The amount of ^86 Rb efflux from the preparation in each period was determined with a γ-counter.
The increment in efflux rate during the application of the compound was expressed as percent of the efflux before the application of the compound.

[4] = system: isolated rat aortae; assay: Vasorelaxing effect on the isolated rat aortae (40 mM KCl contraction); set-up: species or system male Wistar rats; conditions: inhibition of 40 mM KCl-induced contraction, isolated rat aorta
Description: Vasorelaxing effect on the isolated rat aortae
The compounds of the present invention were tested for their physiological activities by measuring the tension of isolated rat aortae isometrically.
Thoracic aortae obtained from male Wistar rats (weighing 250-350 g) were cut into ring segments about 3 mm long. The ring preparation was placed in an organ bath filled with 10 ml of Krebs-Ringer solution that was maintained at 37° C. and gassed with 95% O2 -5% CO2.
The preparation in the organ bath was allowed to equilibrate under resting tension of 1 g. After equilibration period, the solution in the organ bath was replaced with an isotonic solution containing 40 mM KCl to contract the preparation.
After the contraction induced by KCl had reached plateau, the concentration-response relationship for the test compound was determined by means of cumulative addition.
The relaxation response of the test compounds was expressed as the percent inhibition of the contraction induced by KCl, and the IC50 value, which is a concentration required for inhibiting the contraction induced by KCl to an extent of 50%, was calculated by the Probit method from the concentration-response curve.

[5] = system: male ddY mice; assay: Effect on hypoxia (survival time); format: in vivo; conditions: oral, 96% N2 -4% O2, mean ± S.E.M.
Description: Effect of the compound of the present invention on hypoxia
The effect of the compound of the present invention [test compound: N-cyano-N'-(2-nitroxyethyl)-3-pyridinecarboximidamide (compound (13))] on hypoxia was examined in male ddY mice (4 week old). Mice were exposed to a gas mixture of 96% N2 -4% O2 that was streamed in a flow rate of 5 l/min.
The time from the onset of the gas stream till the stop of respiration [survival time (sec)] was measured.
The test compound was orally administered in the dosage form of a 2% suspension in gum arabic 30 minutes before the onset of the gas streaming. The control group was administered a gum arabic suspension only.

CC1(C)Oc2ccc(C#N)cc2[C@@H](N2CCCC2=O)[C@@H]1O (relative stereo) [chromakalim]
effects in animal experiments [1]: vasodilating effect, antihypertensive effect, coronary blood flow increasing effect, cerebral vasodilative effect and bronchodilatative effect | potassium channel activating effect [2]: potassium channel activating effect

N#CNC(=NCc1ccccc1)c1cccnc1 [(17), N-cyano-N'-benzyl-3-pyridinecarboximidamide]
Increment of Efflux (86Rb) [3]: 135.41%

N#CNC(=NCCc1ccccc1)c1cccnc1 [(27), N-cyano-N'-(2-phenylethyl)-3-pyridinecarboximidamide]
Increment of Efflux (86Rb) [3]: 206.61%

COc1ccc(NC(=NC#N)c2cccnc2)c(OC)n1 [(40), N-cyano-N'-3-(2,6-dimethoxypyridine)-3-pyridinecarboximidamide]
IC50 [4]: 10 µM

N#CNC(=NCCO[N+](=O)[O-])c1ccncc1 [(41), N-cyano-N'-(2-nitroxyethyl)-4-pyridinecarboximidamide]
Increment of Efflux (86Rb) [3]: 126.88%

N#CNC(=NCCO[N+](=O)[O-])c1cccnc1 [Compound (13), N-cyano-N'-(2-nitroxyethyl)-3-pyridinecarboximidamide]
Survival Time ([5]; 0.3 mg/kg): 130.27 ± 9.32 s | Survival Time ([5]; 1.0 mg/kg): 201.00 ± 13.40 s | Survival Time ([5]; 3.0 mg/kg): 523.15 ± 48.57 s | Increment of Efflux (86Rb) [3]: 213.53%

O=C(NCCO[N+](=O)[O-])c1cccnc1 [Nicorandil, nicorandil]
effects in animal experiments [1]: vasodilating effect, antihypertensive effect, coronary blood flow increasing effect, cerebral vasodilative effect and bronchodilatative effect | potassium channel activating effect [2]: potassium channel activating effect

CC(N/C(=N\C#N)Nc1ccncc1)C(C)(C)C (centres unmarked) [pinacidil]
effects in animal experiments [1]: vasodilating effect, antihypertensive effect, coronary blood flow increasing effect, cerebral vasodilative effect and bronchodilatative effect | potassium channel activating effect [2]: potassium channel activating effect
